According to patent publication US20250019344A1, “CREATINE CARBONATE AND METHODS OF PRODUCTION AND USES” (ThermoLife International, LLC, priority 2023, published 2025):

Experiments:
Assay type in all cases: in vivo, human
[1] = Gastrointestinal tolerability after oral creatine supplementation in a subject; details: for gastrointestinal side effects: 20 g once per day with 1000 ml of water, monohydrate for 5 consecutive days, carbonate after 14 days washout
Method: A subject, trained, was administered 5 g creatine carbonate and monitored for any gastrointestinal tract symptoms. […] In contrast, the subject would develop a bloated stomach with creatine supplements currently on the market.
(§1) At the end on day 5, the subject was able to perform 8 knee extensions at 80% maximum weight (200 lbs.). This was 2 more than their usual 6 extensions with this weight (control). So, creatine supplementation with creatine monohydrate improved the subject's physical performance though with gastrointestinal side effects.
(§2) After a washout period of 14 days, where the subject ingested no creatine supplements, they began a second period of creatine supplementation with 20 g creatine carbonate, also taken once per day with 1000 ml water. […] At the end of the creatine supplementation with creatine carbonate, the subject again evaluated the effect of creatine supplementation with knee extension exercises at 80% maximum weight (200 lbs.). They performed 10 extensions, which was better than either the control or after 5 days of creatine monohydrate supplementation.

[2] = Blood lactate after treadmill exercise (Heartscare C1 lactate monitoring system); details: person; treadmill 5 miles per hour for 10 minutes, 60 minutes after ingesting 10 g; without supplement 8.1 mmol/L
Method: A recreationally active person used the treadmill at 5 miles per hour for 10 minutes and measured their lactate levels using a Heartscare C1 lactate monitoring system. Their blood lactate measured at 8.1 mmol/L. After a two-day washout period, they repeated the same treadmill exercise 60 minutes after ingesting 10 g creatine carbonate. Their blood lactate measured at 7.1 mmol/L. Thus, even without creatine loading, creatine carbonate can reduce lactate production from exercise, as measured by blood lactate level.

[3] = Knee extension exercise at 80% maximum weight after creatine supplementation; details: at end of supplementation, 20 g once per day with 1000 ml water; usual 6 extensions (control)
From the text: as §1, §2

Row | Structure (SMILES) | gastrointestinal side effects [1] | gastrointestinal tract symptoms ([1]; subject, trained, 5 g administered) | onset of gastrointestinal distress ([1]; up to 20 grams orally administered to subjects) | blood lactate [2] | knee extensions performed at 80% maximum weight (200 lbs.) [3]
1 | CN(CC(=O)O)C(=N)N.O=C(O)O [creatine carbonate] | Besides light belching, no other gastrointestinal side effects were noted | did not experience any unwanted gastrointestinal tract issues except a little belching | without onset of gastrointestinal distress | 7.1 mmol/L | 10
2 | CN(CC(=O)O)C(=N)N.O [creatine monohydrate, reference compound] | gastrointestinal disturbances, such as diarrhea and stomach bloating, occurred |  |  |  | 8
